Where two headings read alike, the source gives them in different places. Marks after values point to notes of the source that are not given here.
Assays:
Boophilus microplus = Boophilus microplus test (BOOPMI injection); assay type: in vivo; set-up: dose or concentration left out as unconfirmed; conditions: after 7 days
Description: (§1) Solvent: dimethyl sulfoxide
The solution of active compound is injected into the abdomen (Boophilus microplus), and the animals are transferred into dishes and kept in a climatized room. The activity is assessed by laying of fertile eggs.
100% means that none of the ticks has laid any fertile eggs.

[1] = system: greenhouse red spider mite (Tetranychus urticae); experiment: Tetranychus urticae spray test, OP-resistant (TETRUR), bean leaf disks; assay type: in vivo; conditions: for pest or weed control at 500 g/ha: Tetranychus urticae, foliar, 144 h, read-out: efficacy (spider mites killed)
Description: (§2) After 6 days, the effect in % is determined.

[2] = system: cattle ticks (Boophilus microplus); experiment: Boophilus microplus injection test (BOOPMI Inj); assay type: in vivo; conditions: for pest or weed control at 0.02 mg: Rhipicephalus microplus, 168 h, read-out: efficacy (laying of fertile eggs)
Description: as §1
1 μl of the active compound solution is injected into the abdomen of 5 engorged adult female cattle ticks (Boophilus microplus). The animals are transferred into dishes and kept in a climate-controlled room.
(§3) The activity is assessed after 7 days by laying of fertile eggs. Eggs whose fertility is not visible from the outside are stored in a climate-controlled cabinet until the larvae hatch after about 42 days. An efficacy of 100% means that none of the ticks has laid any fertile eggs; 0% means that all eggs are fertile.

[3] = logP by HPLC on reversed-phase columns (C 18), EEC Directive 79/831 Annex V.A8; assay type: physicochemical; conditions: for chromatographic logP: reversed-phase C18 HPLC column; for logP(HCOOH): pH 2.7; for logP(neutral): pH 7.8
Description: Calibration is carried out using unbranched alkan-2-ones (having from 3 to 16 carbon atoms) with known log P values (the log P values are determined by the retention times using linear interpolation between two successive alkanones).

[4] = system: larvae of the mustard beetle (Phaedon cochleariae); experiment: Phaedon cochleariae spray test (PHAECO); conditions: for effect (beetle larvae killed): application rate 500 g/ha, after 7 days
[5] = system: greenhouse red spider mite (Tetranychus urticae); experiment: Tetranychus test, OP-resistant (TETRUR spray treatment); assay type: in vivo; conditions: application rate 500 g/ha, after 6 days
Description: as §2

[6] = system: larvae of the mustard beetle (Phaedon cochleariae); experiment: Phaedon test (PHAECO spray treatment); conditions: application rate 500 g/ha, after 7 days
[7] = system: L1 larvae of the Australian sheep blowfly (Lucilia cuprina); experiment: Lucilia cuprina test (LUCICU); assay type: in vivo; conditions: application rate 100 ppm, after 2 days
Description: as §1
About 20 L1 larvae of the Australian sheep blowfly (Lucilia cuprina) are transferred into a test vessel containing minced horsemeat and the active compound preparation of the desired concentration.
After 2 days, the kill in % is determined.

[8] = system: green peach aphid (Myzus persicae); experiment: Myzus persicae spray test (MYZUPE); assay type: in vivo; conditions: after 6 days
Description: as §2

[9] = system: cattle ticks (Boophilus microplus) Parkhurst strain, SP-resistant; experiment: Boophilus microplus dip test (BOOPMI Dip); assay type: in vivo; conditions: application rate 100 ppm, after 7 days
Description: Test animals: cattle ticks (Boophilus microplus) Parkhurst strain, SP-resistant
as §1
10 mg of active compound are dissolved in 0.5 ml of dimethyl sulfoxide. To prepare a suitable formulation, the active compound solution is diluted with water to the concentration desired in each case.
This active compound preparation is pipetted into tubes. 8-10 adult engorged female cattle ticks (Boophilus microplus) are transferred into a further tube with holes. The tube is immersed into the active compound formulation, and all ticks are completely wetted. After the liquid has run out, the ticks are transferred on filter disks into plastic dishes and stored in a climate-controlled room.
as §3

[10] = system: greenhouse red spider mite (Tetranychus urticae); experiment: Tetranychus urticae spray test, OP-resistant (TETRUR), bean plants; assay type: in vivo; conditions: application rate 20 ppm, after 7 days
Description: Solvents: 7 parts by weight of dimethylformamide
Emulsifier: 2 part by weight of alkylaryl polyglycol ether
If the addition of ammonium salts or/and penetrants is required, these are in each case added in a concentration of 1000 ppm to the solution of the preparation.
Bean plants (Phaseolus vulgaris) which are heavily infested by all stages of the greenhouse red spider mite (Tetranychus urticae) are treated by spraying with the active compound preparation of the desired concentration.

[11] = application rate 500 g/ha, after 6 days
[12] = application rate 20 μg/animal, injection, after 7 days
[13] = pH 2.7, [a] LC-MS, acidic range, pH 2.7, 0.1% aqueous formic acid/acetonitrile, read-out: logP(HCOOH)
[14] = pH 7.8, [b] LC-MS, neutral range, pH 7.8, 0.001 molar aqueous ammonium bicarbonate/acetonitrile, read-out: logP(neutral)

## Cc1cc(F)c(/N=C(/N(C)C)C(F)(F)F)cc1SCC(F)(F)F [Ia-01, 2,2,2-Trifluoro-N′-{2-fluoro-4-methyl-5-[(2,2,2-trifluoroethyl)sulfanyl]phenyl}-N,N-dimethylethanimidamide]
Boophilus microplus
  efficacy (laying of fertile eggs): 100%
[1]; [11]
  pest or weed control at 500 g/ha: 100%
[2]; [12]
  pest or weed control at 0.02 mg: 100%
[3]; [13]
  chromatographic logP: 4.48
[3]; [14]
  chromatographic logP: 4.5

## CCCNC(=Nc1cc(SCC(F)(F)F)c(C)cc1F)C(F)(F)F [Ia-02]
[4]
  effect (beetle larvae killed): 100%
[5]
  efficacy (spider mites killed): 100%
[1]; [11]
  efficacy (spider mites killed): 100%
[6]
  efficacy (beetle larvae killed): 100%
[3]
  logP(HCOOH): 4.45
  logP(neutral): 4.43

## Cc1cc(F)c(N=C(NCc2ccccn2)C(F)(F)F)cc1SCC(F)(F)F [Ia-04]
Boophilus microplus
  efficacy (laying of fertile eggs): 80%
[4]
  effect (beetle larvae killed): 100%
[1]; [11]
  efficacy (spider mites killed): 100%
[6]
  efficacy (beetle larvae killed): 100%
[2]; [12]
  efficacy (laying of fertile eggs): 80%
[3]
  logP(HCOOH): 3.68^[a]

## Cc1cc(F)c(N=C(NC(C)C)C(F)(F)F)cc1SCC(F)(F)F [Ia-05]
[4]
  effect (beetle larvae killed): 100%
[5]
  efficacy (spider mites killed): 100%
[1]; [11]
  efficacy (spider mites killed): 100%
[6]
  efficacy (beetle larvae killed): 100%
[3]
  logP(HCOOH): 4.51
  logP(neutral): 4.52

## CNC(=Nc1cc(SCC(F)(F)F)c(C)cc1F)C(F)(F)F [Ia-13]
[4]
  effect (beetle larvae killed): 100%
[5]
  efficacy (spider mites killed): 100%
[1]; [11]
  efficacy (spider mites killed): 100%
[7]
  efficacy (kill of larvae): 90%
[6]
  efficacy (beetle larvae killed): 100%
[2]; [12]
  efficacy (laying of fertile eggs): 100%
[3]
  logP(HCOOH): 3.7
  logP(neutral): 3.71

## NC(=Nc1cc(SCC(F)(F)F)c(Cl)cc1Cl)C(F)(F)F [Ia-14]
[4]
  effect (beetle larvae killed): 100%
[1]; [11]
  efficacy (spider mites killed): 100%
[6]
  efficacy (beetle larvae killed): 100%

## CNC(=Nc1cc(SCC(F)(F)F)c(Cl)cc1Cl)C(F)(F)F [Ia-15]
[4]
  effect (beetle larvae killed): 100%
[5]
  efficacy (spider mites killed): 100%
[1]; [11]
  efficacy (spider mites killed): 100%
[6]
  efficacy (beetle larvae killed): 100%
[3]
  logP(HCOOH): 4.2^[a]; 4.2^[b]
  logP(neutral): 4.2^[a]; 4.2^[b]

## CCNC(=Nc1cc(SCC(F)(F)F)c(C)cc1F)C(F)(F)F [Ia-18]
[4]
  effect (beetle larvae killed): 100%
[5]
  efficacy (spider mites killed): 100%
[1]; [11]
  efficacy (spider mites killed): 100%
[6]
  efficacy (beetle larvae killed): 100%
[3]
  logP(HCOOH): 4.12^[a]; 4.12^[b]
  logP(neutral): 4.12^[a]; 4.12^[b]

## CNC(=Nc1ccc(C(F)(F)F)c(SCC(F)(F)F)c1)C(F)(F)F [Ia-19]
[4]
  effect (beetle larvae killed): 100%
[1]; [11]
  efficacy (spider mites killed): 100%
[6]
  efficacy (beetle larvae killed): 100%

## Cc1cc(F)c(N=C(N)C(F)(F)C(F)(F)C(F)(F)C(F)(F)C(F)(F)C(F)F)cc1SCC(F)(F)F [Ia-22]
Boophilus microplus
  efficacy (laying of fertile eggs): 100%
[1]; [11]
  efficacy (spider mites killed): 100%
[2]; [12]
  efficacy (laying of fertile eggs): 100%

## Cc1cc(C)c(SCC(F)(F)F)cc1/N=C(\N)C1(Cl)CC1 [Ia-34]
[8]; application rate 500 g/ha
  effect (aphids killed): 90%
[1]; [11]
  pest or weed control at 500 g/ha: 100%
[2]; [12]
  pest or weed control at 0.02 mg: 100%

## Cc1cc(F)c(/N=C(/N)c2ccc(F)cc2)cc1SCC(F)(F)F [Ia-116]
[8]; application rate 500 g/ha
  effect (aphids killed): 90%
[1]; [11]
  pest or weed control at 500 g/ha: 100%
[2]; [12]
  pest or weed control at 0.02 mg: 100%

## Cc1cc(F)c(/N=C2\CCCN2CC(F)(F)F)cc1SCC(F)(F)F [Ia-189, 2-fluoro-4-methyl-N-[1-(2,2,2-trifluoroethyl)pyrrolidin-2-ylidene]-5-[(2,2,2-trifluoroethyl)sulfanyl]aniline]
[1]
  pest or weed control at 500 g/ha: 100%
[2]
  pest or weed control at 0.02 mg: 100%
[9]
  efficacy (laying of fertile eggs): 100%
[3]; [13]
  chromatographic logP: 2.32
[3]; [14]
  chromatographic logP: 4.37

## Cc1cc(F)c(/N=C(\NC(C)C(F)(F)F)C2CC2)cc1SCC(F)(F)F (centres unmarked) [Ia-206]
[8]; application rate 500 g/ha
  effect (aphids killed): 100%
[1]; [11]
  pest or weed control at 500 g/ha: 100%
[2]; [12]
  pest or weed control at 0.02 mg: 100%

## Cc1cc(F)c(/N=C(\NCC2CCCC(C(F)(F)F)C2)C2CC2)cc1SCC(F)(F)F (centres unmarked) [Ia-228]
[8]; application rate 500 g/ha
  effect (aphids killed): 100%
[1]; [11]
  pest or weed control at 500 g/ha: 90%

## Cc1cc(F)c(/N=C(/N(C)C)C(F)(F)F)cc1[S+]([O-])CC(F)(F)F (centres unmarked) [Ib-01, 2,2,2-Trifluoro-N′-{2-fluoro-4-methyl-5-[(2,2,2-trifluoroethyl)sulfinyl]phenyl}-N,N-dimethylethanimidamide]
Boophilus microplus
  efficacy (laying of fertile eggs): 100%
[1]; [11]
  pest or weed control at 500 g/ha: 90%
[2]; [12]
  pest or weed control at 0.02 mg: 100%
[3]; [13]
  chromatographic logP: 3.15

## CNC(=Nc1cc([S+]([O-])CC(F)(F)F)c(C)cc1F)C(F)(F)F (centres unmarked) [Ib-07]
[5]
  efficacy (spider mites killed): 100%
[1]; [11]
  efficacy (spider mites killed): 100%
[2]; [12]
  efficacy (laying of fertile eggs): 100%
[3]
  logP(HCOOH): 2.64
  logP(neutral): 2.61

## CN/C(=N/c1ccc(C(F)(F)F)c([S+]([O-])CC(F)(F)F)c1)C(F)(F)F (centres unmarked) [Ib-10]
Boophilus microplus
  efficacy (laying of fertile eggs): 100%
[4]
  effect (beetle larvae killed): 100%
[1]; [11]
  efficacy (spider mites killed): 100%
[6]
  efficacy (beetle larvae killed): 100%
[2]; [12]
  efficacy (laying of fertile eggs): 100%
[3]
  logP(HCOOH): 2.52
  logP(neutral): 2.49

## Cc1cc(C)c([S+]([O-])CC(F)(F)F)cc1/N=C(/N)C(F)(F)F (centres unmarked) [Ib-12]
[5]
  efficacy (spider mites killed): 100%
[1]; [11]
  efficacy (spider mites killed): 100%
[2]; [12]
  efficacy (laying of fertile eggs): 100%
[3]
  logP(HCOOH): 3.36
  logP(neutral): 3.3

## N/C(=N/c1cc([S+]([O-])CC(F)(F)F)c(Cl)cc1Cl)C(F)(F)F (centres unmarked) [Ib-14]
Boophilus microplus
  efficacy (laying of fertile eggs): 100%
[4]
  effect (beetle larvae killed): 100%
[1]; [11]
  efficacy (spider mites killed): 100%
[6]
  efficacy (beetle larvae killed): 100%
[2]; [12]
  efficacy (laying of fertile eggs): 100%
[3]
  logP(HCOOH): 2.05
  logP(neutral): 2.02

## N/C(=N/c1ccc(C(F)(F)F)c([S+]([O-])CC(F)(F)F)c1)C(F)(F)F (centres unmarked) [Ib-16]
Boophilus microplus
  efficacy (laying of fertile eggs): 100%
[4]
  effect (beetle larvae killed): 100%
[1]; [11]
  efficacy (spider mites killed): 100%
[6]
  efficacy (beetle larvae killed): 100%
[2]; [12]
  efficacy (laying of fertile eggs): 100%
[3]
  logP(HCOOH): 2.2
  logP(neutral): 2.19

## Cc1cc(F)c(/N=C2\CCCN2CC(F)F)cc1[S+]([O-])CC(F)(F)F (centres unmarked) [Ib-33]
[1]; [11]
  pest or weed control at 500 g/ha: 100%
[2]; [12]
  pest or weed control at 0.02 mg: 100%
[9]
  efficacy (laying of fertile eggs): 100%

## Cc1cc(F)c(/N=C(\N)C(F)(F)C(F)(F)F)cc1[S+]([O-])CC(F)(F)F (centres unmarked) [Ib-42]
[8]; application rate 100 g/ha
  effect (aphids killed): 80%
[1]; [11]
  pest or weed control at 500 g/ha: 100%

## Cc1cc(F)c(/N=C2\CCCN2CC(F)(F)F)cc1[S+]([O-])CC(F)(F)F (centres unmarked) [Ib-115, 2-Fluoro-4-methyl-N-[1-(2,2,2-trifluoroethyl)pyrrolidin-2-ylidene]-5-[(2,2,2-trifluoroethyl)sulfinyl]aniline]
[4]; Phaedon cochleariae, 168 h, read-out: effect (beetle larvae killed)
  pest or weed control at 500 g/ha: 100%
[1]
  pest or weed control at 500 g/ha: 100%
[2]
  pest or weed control at 0.02 mg: 100%
[9]
  efficacy (laying of fertile eggs): 100%

## CN(C)/C(=N\c1cc([S+]([O-])CC(F)(F)F)c(Cl)cc1Cl)c1cccnc1 (centres unmarked) [Ib-123]
[8]; application rate 500 g/ha
  effect (aphids killed): 90%
[1]; [11]
  pest or weed control at 500 g/ha: 100%

## Cc1cc(C)c([S+]([O-])CC(F)(F)F)cc1/N=C1\SCC(=O)N1C (centres unmarked) [Ib-159]
[10]
  efficacy (spider mites killed): 80%

## Cc1cc(F)c(/N=C2\SCC(=O)N2CC(F)(F)F)cc1[S@+]([O-])CC(F)(F)F [Ib-168]
[10]
  efficacy (spider mites killed): 100%
